One compound from PMC3997336 (PLoS ONE, 2014) can be followed below.

The target in this experiment is T1, MKK7 (Homo sapiens, UniProt O14733).
T1 construct: gene MAP2K7
Briefly: biochemical.

T1 sequence (O14733 2-419): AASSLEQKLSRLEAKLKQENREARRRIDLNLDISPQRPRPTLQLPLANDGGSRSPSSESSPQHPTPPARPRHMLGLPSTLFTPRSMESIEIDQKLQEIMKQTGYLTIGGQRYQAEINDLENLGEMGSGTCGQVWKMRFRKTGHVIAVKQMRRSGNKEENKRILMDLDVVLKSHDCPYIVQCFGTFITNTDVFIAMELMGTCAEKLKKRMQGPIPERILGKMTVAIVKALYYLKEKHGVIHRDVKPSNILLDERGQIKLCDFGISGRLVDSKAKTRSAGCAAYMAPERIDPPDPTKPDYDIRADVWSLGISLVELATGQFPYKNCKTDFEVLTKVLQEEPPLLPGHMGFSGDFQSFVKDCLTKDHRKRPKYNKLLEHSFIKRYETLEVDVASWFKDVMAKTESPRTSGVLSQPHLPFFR

A word on the IC50: it is the point on the concentration scale where inhibition reaches its midpoint. Higher therefore signals weaker potency. `COc1ccc2c(Cc3ccc(O[Si](C)(C)C(C)(C)C)cc3)c3[n+](cc2c1OC)CCc1cc2c(cc1-3)OCO2` [HWY336] had an IC50 of 10 µM.
